# Reference: patent US8815535B2, “Disk diffusion assay for oritavancin” (The Medicines Company, priority 2011, dated 2014)
# Read-outs that look alike come from different tables or passages of the source.
# Columns and labels:
# Assay in all cases: Disk diffusion assay (zone of inhibition)
# MSSA T972018 = assay type: cell-based; conditions: Staphylococcus aureus, read-out: Zone diameter (mm ± SD)
# Excerpt: (§1) The study was designed to identify conditions that improve oritavancin diffusion in agar and consequently yield a zone diameter ≧15 mm for the CLSI quality control strain MSSA ATCC 25923. Excipients that increased the disk diffusion of oritavancin in agar relative to disks containing only oritavancin were identified and selected for further study. […] A prediffusion step at room temperature was introduced to maximize oritavancin diffusion prior to initiation of bacterial growth. In this step, the antimicrobial disks were placed on agar plates seeded with a bacterial isolate and incubated at room temperature for 3 hours. Plates were then incubated overnight at 37° C. Zone diameters around the disks in which bacterial growth was inhibited were measured with a ruler and reported in millimeters.
# (§2) Ethanol-sterilized Whatman paper disks (6 mm diameter) were allowed to dry then impregnated with 20 microliters of oritavancin solution containing total amounts ranging from 90 to 360 micrograms. Disks were allowed to dry at room temperature for various times prior to use.
# (§3) Bacterial suspensions were prepared and adjusted to an optical density of 0.1 at 600 nm. Standard cation-adjusted Mueller Hinton agar plates (90 mm diameter) were seeded with bacterial suspensions by initially swabbing the center of plate then moving outward towards the edge. The plate was swabbed a second time, perpendicular to the orientation of the first swab. To assess the impact of prediffusion on diameter of inhibition zones, two disks were immediately placed on one half of the plate and the plate was incubated for 3 hours at room temperature. After 3 hours, two additional disks were placed on the other half of the plate then the plate was incubated overnight at 37° C. Zone diameters were measured with a ruler and reported in millimeters.
# MRSA NRS123-ORI^RS = assay type: cell-based; conditions: Staphylococcus aureus, read-out: Zone diameter (mm ± SD)
# Excerpt: as §1, §2, §3
# MRSA NRS121-ORI^RS = assay type: cell-based; conditions: Staphylococcus aureus, read-out: Zone diameter (mm ± SD)
# Excerpt: as §1, §2, §3
# MRSA NRS121 = assay type: cell-based; conditions: Staphylococcus aureus, read-out: Zone diameter (mm ± SD), NRS121, 360 μg in 5% P80
# Excerpt: as §1, §2, §3
# hVISA NRS2 = assay type: cell-based; conditions: Staphylococcus aureus, Oxoid disks, 20 μl of 18 mg/ml oritavancin in 5% P80, stored 30 days at room temperature, prediffusion 6 hours at 4° C., read-out: Inhibition zone diameter
# MRSA Q670607 = assay type: cell-based, Staphylococcus aureus; conditions: 20 μl of 1.25 mg/ml in 4% P80/Span 80 (1:1), calcium alginate swabs, dried overnight, duplicate
# Experimental: (§4) Oritavancin powder was dissolved in freshly-prepared solutions of the indicated excipients at concentrations of 0.625, 1.25, 2.5, 5, and 10 mg/ml (adjusted for potency based on lot 875561L00 purity of 83.1%) by vortexing for a minimum of 5 minutes. Oritavancin solutions in the various excipients, while not visually clear, were free from any apparent particulates as assessed visually. Sterile Oxoid blank disks were impregnated with 20 μl of these oritavancin solutions, resulting in oritavancin disk loads ranging from 12.5 to 200 μg. Unless indicated otherwise, disks were allowed to dry overnight at room temperature prior to use.
# (§5) Bacterial suspensions from isolated colonies on overnight cation-adjusted Mueller Hinton agar plates were prepared in sterile saline and adjusted to an optical density of 0.1 at 600 nm Standard cation-adjusted Mueller Hinton agar plates (90 mm diameter) were seeded with bacterial suspensions by initially swabbing the center of plate then moving outward. Swabbing was continued at a right angle and then at an oblique angle to the first and second swabs. Disks were placed upon the seeded plates with sterile forceps. Plates were then incubated overnight at 37° C. and inhibition zone diameters were measured with a ruler and reported in millimeters.
# MRSA Q670505 = assay type: cell-based, Staphylococcus aureus; conditions: 20 μl of 1.25 mg/ml in 4% P80/Span 80 (1:1), calcium alginate swabs, dried overnight, duplicate
# Experimental: as §4, §5
# MSSA S815247 = assay type: cell-based, Staphylococcus aureus; conditions: 20 μl of 1.25 mg/ml in 4% P80/Span 80 (1:1), calcium alginate swabs, dried overnight, duplicate
# Experimental: as §4, §5
# MRSA U933237 = assay type: cell-based, Staphylococcus aureus; conditions: 20 μl of 1.25 mg/ml in 4% P80/Span 80 (1:1), calcium alginate swabs, dried overnight, duplicate
# Experimental: as §4, §5
# hVISA NRS36 = assay type: cell-based, Staphylococcus aureus; conditions: 25 μg (1.25 mg/ml) in 4% P80/Span 80 (1:1), dried overnight
# Experimental: as §4, §5
# MSSA U933236 = assay type: cell-based, Staphylococcus aureus; conditions: 20 μl of 1.25 mg/ml in 4% P80/Span 80 (1:1), calcium alginate swabs, dried overnight, duplicate
# Experimental: as §4, §5
# MSSA T811355 = assay type: cell-based, Staphylococcus aureus; conditions: 20 μl of 1.25 mg/ml in 4% P80/Span 80 (1:1), calcium alginate swabs, dried overnight, duplicate
# Experimental: as §4, §5
# MRSA Q141067 = assay type: cell-based, Staphylococcus aureus; conditions: 20 μl of 1.25 mg/ml in 4% P80/Span 80 (1:1), calcium alginate swabs, dried overnight, duplicate
# Experimental: as §4, §5
# MSSA S815246 = assay type: cell-based, Staphylococcus aureus; conditions: 20 μl of 1.25 mg/ml in 4% P80/Span 80 (1:1), calcium alginate swabs, dried overnight, duplicate
# Experimental: as §4, §5
# MRSA V257345 = assay type: cell-based, Staphylococcus aureus; conditions: 20 μl of 1.25 mg/ml in 4% P80/Span 80 (1:1), calcium alginate swabs, dried overnight, duplicate
# Experimental: as §4, §5
# MRSA U260847 = assay type: cell-based, Staphylococcus aureus; conditions: 20 μl of 1.25 mg/ml in 4% P80/Span 80 (1:1), calcium alginate swabs, dried overnight, duplicate
# Experimental: as §4, §5
# MSSA U781969 = assay type: cell-based, Staphylococcus aureus; conditions: 20 μl of 1.25 mg/ml in 4% P80/Span 80 (1:1), calcium alginate swabs, dried overnight, duplicate
# Experimental: as §4, §5
# [1] = 360 μg in 5% P80, Experiment 2, disks stored 8 days, 3 h prediffusion at room temperature
# [2] = 192 h, 360 μg in 5% P80, Experiment 2, disks stored 8 days, no prediffusion
# [3] = 360 μg in 5% P80, Average, no prediffusion
# [4] = 360 μg in 5% P80, Average, prediffusion
# [5] = Staphylococcus aureus, MRSA, read-out: Inhibition zone diameter
# [6] = Staphylococcus aureus, MSSA, read-out: Inhibition zone diameter
smiles,measurement,setting,value
"CN[C@H](CC(C)C)C(=O)N[C@H]1C(=O)N[C@@H](CC(N)=O)C(=O)N[C@H]2C(=O)N[C@H]3C(=O)N[C@H](C(=O)N[C@H](C(=O)O)c4cc(O)cc(O)c4-c4cc3ccc4O)[C@H](O[C@H]3C[C@](C)(N)[C@@H](O)[C@H](C)O3)c3ccc(c(Cl)c3)Oc3cc2cc(c3O[C@@H]2O[C@H](CO)[C@@H](O)[C@H](O)[C@H]2O[C@H]2C[C@](C)(NCc3ccc(-c4ccc(Cl)cc4)cc3)[C@@H](O)[C@H](C)O2)Oc2ccc(cc2Cl)[C@H]1O [oritavancin, N-(4-(4-chlorophenyl)benzyl)A82846B]",zone of inhibition at 360 µg/disc,"MSSA T972018; 360 μg in 5% P80, Average of experiments, no prediffusion",15 ± 0.6 mm
same,zone of inhibition at 360 µg/disc,"MSSA T972018; 360 μg in 5% P80, Average of experiments, prediffusion",17.4 ± 0.3 mm
same,zone of inhibition at 360 µg/disc,"MSSA T972018; 360 μg in 5% P80, Experiment 1, disks stored 14 days, 3 h prediffusion at room temperature",17.5 mm
same,zone of inhibition at 360 µg/disc,MSSA T972018; [1],17.3 ± 0.4 mm
same,zone of inhibition at 360 µg/disc,MSSA T972018; [2],14.5 mm
same,zone of inhibition at 360 µg/disc,"MSSA T972018; 336 h, 360 μg in 5% P80, Experiment 1, disks stored 14 days, no prediffusion",15.5 mm
same,zone of inhibition at 360 µg/disc,MRSA NRS123-ORI^RS; [3],14 mm
same,zone of inhibition at 360 µg/disc,MRSA NRS123-ORI^RS; [4],15 mm
same,zone of inhibition at 360 µg/disc,MRSA NRS123-ORI^RS; [1],15 mm
same,zone of inhibition at 360 µg/disc,MRSA NRS123-ORI^RS; [2],14 mm
same,zone of inhibition at 360 µg/disc,MRSA NRS121-ORI^RS; [3],13 mm
same,zone of inhibition at 360 µg/disc,MRSA NRS121-ORI^RS; [4],14 mm
same,zone of inhibition at 360 µg/disc,MRSA NRS121-ORI^RS; [1],14 mm
same,zone of inhibition at 360 µg/disc,MRSA NRS121-ORI^RS; [2],13 mm
same,zone of inhibition at 360 µg/disc,"MRSA NRS121; 192 h, Experiment 2, disks stored 8 days, no prediffusion",15 mm
same,zone of inhibition at 360 µg/disc,"MRSA NRS121; Average, no prediffusion",15 mm
same,zone of inhibition at 360 µg/disc,"MRSA NRS121; Average, prediffusion",17.3 ± 0.4 mm
same,zone of inhibition at 360 µg/disc,"MRSA NRS121; Experiment 2, disks stored 8 days, 3 h prediffusion at room temperature",17.3 ± 0.4 mm
same,zone of inhibition at 18000 µg/mL,hVISA NRS2,16.5 mm
same,Inhibition zone diameter,MRSA Q670607,22 mm
same,zone of inhibition at 1250 µg/mL,MRSA Q670607; [5],21 mm
same,Inhibition zone diameter,MRSA Q670505,"18, 18 mm"
same,zone of inhibition at 1250 µg/mL,MRSA Q670505; [5],18 mm
same,Inhibition zone diameter,MSSA S815247,21 mm
same,zone of inhibition at 1250 µg/mL,MSSA S815247; [6],20 mm
same,Inhibition zone diameter,MRSA U933237,22 mm
same,zone of inhibition at 1250 µg/mL,MRSA U933237; [5],21 mm
same,Inhibition zone diameter,hVISA NRS36; NRS36,12 mm
same,zone of inhibition at 25 µg/disc,"hVISA NRS36; Staphylococcus aureus, NRS36, read-out: Inhibition zone diameter, NRS36",11 mm
same,Inhibition zone diameter,MSSA U933236,22 mm
same,zone of inhibition at 1250 µg/mL,MSSA U933236; [6],21 mm
same,Inhibition zone diameter,MSSA T811355,22 mm
same,zone of inhibition at 1250 µg/mL,MSSA T811355; [6],21 mm
same,Inhibition zone diameter,MRSA Q141067,22 mm
same,zone of inhibition at 1250 µg/mL,MRSA Q141067; [5],21 mm
same,Inhibition zone diameter,MSSA S815246,22 mm
same,zone of inhibition at 1250 µg/mL,MSSA S815246; [6],21 mm
same,Inhibition zone diameter,MRSA V257345,22 mm
same,zone of inhibition at 1250 µg/mL,MRSA V257345; [5],21 mm
same,Inhibition zone diameter,MRSA U260847,22 mm
same,zone of inhibition at 1250 µg/mL,MRSA U260847; [5],21 mm
same,Inhibition zone diameter,MSSA U781969,23 mm
same,zone of inhibition at 1250 µg/mL,MSSA U781969; [6],22 mm
